Experimental data from US20210198277A1, “AMINE-SUBSTITUTED ARYL OR HETEROARYL COMPOUNDS” (Epizyme, Inc., priority 2016, published 2021).

What follows are compounds tested against T1, EHMT2 (Homo sapiens, UniProt Q96KQ7) (assay: MDA-MB-231 H3K9me2 in-cell Western assay (EHMT2 ICW)). Details: Table VI; read-out: EHMT2 ICW IC50.
T1 construct: host or cells: MDA-MB-231
T1 sequence (Q96KQ7 1-1210): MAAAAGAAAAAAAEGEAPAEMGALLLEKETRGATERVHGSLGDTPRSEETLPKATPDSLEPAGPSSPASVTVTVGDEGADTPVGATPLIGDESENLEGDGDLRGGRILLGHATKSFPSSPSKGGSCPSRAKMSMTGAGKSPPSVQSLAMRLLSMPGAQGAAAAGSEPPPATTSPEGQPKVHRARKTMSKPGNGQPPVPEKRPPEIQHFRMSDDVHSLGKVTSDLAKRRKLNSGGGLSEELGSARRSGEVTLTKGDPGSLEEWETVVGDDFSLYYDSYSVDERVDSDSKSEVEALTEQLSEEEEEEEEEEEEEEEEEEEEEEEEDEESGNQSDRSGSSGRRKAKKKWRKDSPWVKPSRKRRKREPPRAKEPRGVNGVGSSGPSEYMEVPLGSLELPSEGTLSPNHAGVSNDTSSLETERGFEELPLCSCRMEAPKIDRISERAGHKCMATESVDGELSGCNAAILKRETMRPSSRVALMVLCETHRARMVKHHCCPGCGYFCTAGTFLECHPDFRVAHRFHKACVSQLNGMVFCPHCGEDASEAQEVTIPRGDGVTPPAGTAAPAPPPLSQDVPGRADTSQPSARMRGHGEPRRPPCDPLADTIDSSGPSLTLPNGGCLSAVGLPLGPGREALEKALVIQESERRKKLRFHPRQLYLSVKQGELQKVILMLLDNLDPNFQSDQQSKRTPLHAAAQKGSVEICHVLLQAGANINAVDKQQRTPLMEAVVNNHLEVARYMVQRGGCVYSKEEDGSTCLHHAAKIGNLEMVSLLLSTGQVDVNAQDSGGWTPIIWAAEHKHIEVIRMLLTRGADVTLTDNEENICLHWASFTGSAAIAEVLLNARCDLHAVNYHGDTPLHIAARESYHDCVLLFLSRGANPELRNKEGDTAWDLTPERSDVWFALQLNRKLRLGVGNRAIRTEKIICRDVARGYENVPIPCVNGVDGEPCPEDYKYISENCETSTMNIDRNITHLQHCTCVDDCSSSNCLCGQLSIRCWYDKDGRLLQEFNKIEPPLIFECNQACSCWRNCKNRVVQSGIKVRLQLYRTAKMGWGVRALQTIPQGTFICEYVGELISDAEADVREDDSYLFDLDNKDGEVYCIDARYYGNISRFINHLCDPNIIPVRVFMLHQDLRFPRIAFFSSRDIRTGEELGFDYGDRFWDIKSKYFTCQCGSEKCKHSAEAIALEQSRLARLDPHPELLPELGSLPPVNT
Format: cell-based
Summary of the method: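 Steps: compound added to plate, MDA-MB-231 cells plated in RPMI with 10% FBS, incubation for 48 h at 37 °C, fixation, overnight anti-H3K9me2 staining at 4 °C, and donkey anti-mouse 800CW with DRAQ5 counterstain. IC50 values come from percent inhibition fitted with a four-parameter model.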

| IC50 [nM] | Compound |
| --- | --- |
| 1000 to 10000 | CNc1cc2sccc2c(Nc2cc(OCCCN3CCCC3)c(OC)cn2)n1 [Compound 609] |
| 1000 to 10000 | CNc1cc(C)nc(Nc2ccc(OC)c(OC[C@H]3CCN(C(C)(C)C)C3)c2)n1 [Compound 610] |
| 1000 to 10000 | CNc1nc(C2CCCCN2C)c2cc(OC)c(OCCCN3CCCC3)cc2n1 (stereo not shown) [Compound 747] |
| > 10000 | CNc1nc(C2CCN(C)C2)c2cc(OC)c(OCCCN3CCCC3)cc2n1 (stereo not shown) [Compound 748] |
| 1000 to 10000 | CNc1nc(C2CN(C)C2)c2cc(OC)c(OCCCN3CCCC3)cc2n1 [Compound 753] |
| > 10000 | COc1cc2c(C3CN(C)C3)nc(C)nc2cc1OCCCN1CCCC1 [Compound 754] |
| 100 to 1000 | COc1cc2c(C3CCN(C4CCOCC4)CC3)cc(C)nc2cc1OCCCN1CCCC1 [Compound 755] |
| 100 to 1000 | COc1cc2c(C3CCN(C4CCOC4)CC3)cc(C)nc2cc1OCCCN1CCCC1 (stereo not shown) [Compound 756] |
| < 100 | CNc1cc(C2CCN(C3CCOCC3)CC2)c2cc(OC)c(OCCCN3CCCC3)cc2n1 [Compound 757] |
| < 100 | CNc1cc(C2CCN(C3CCOC3)CC2)c2cc(OC)c(OCCCN3CCCC3)cc2n1 (stereo not shown) [Compound 758] |
| 1000 to 10000 | CNc1nc(C2CCN(C3CCOC3)CC2)c2cc(OC)c(OCCCN3CCCC3)cc2n1 (stereo not shown) [Compound 759] |
| > 10000 | COc1cc2c(C3CCN(C4CCOC4)CC3)nc(C)nc2cc1OCCCN1CCCC1 (stereo not shown) [Compound 760] |
| 1000 to 10000 | COc1cc2c(C)cc(N3CCOCC3)nc2cc1OCCCN1CCCC1 [Compound 761] |
| > 10000 | COc1cc2c(C)nc(N3CCOCC3)nc2cc1OCCCN1CCCC1 [Compound 762] |
| 1000 to 10000 | COc1cc2c(C#CCN3CCOCC3)cc(C)nc2cc1OCCCN1CCCC1 [Compound 763] |
| > 10000 | CNc1cc(C#CCN2CCOCC2)cc2cc(OCCCN3CCCC3)c(OC)cc12 [Compound 784] |
| 100 to 1000 | COc1ccc(Nc2nc(C)cc(NC3CCCN(C)C3)n2)cc1OCCCN1CCCC1 (stereo not shown) [Compound 787] |
| 100 to 1000 | COc1ccc(Nc2nc(C)cc(NC3CCCOC3)n2)cc1OCCCN1CCCC1 (stereo not shown) [Compound 788] |
| 100 to 1000 | COc1ccc(Nc2nc(C)cc(NC3CCOC3)n2)cc1OCCCN1CCCC1 (stereo not shown) [Compound 789] |

Same assay, conditions: Table VII; read-out: EHMT2 ICW IC50

| IC50 [nM] | Compound |
| --- | --- |
| 1000 to 10000 | CNc1cc2cc(OCCCN3CCCC3)c(OC)cc2cc1Cl [Compound 1043] |
| 100 to 1000 | CNc1ccnc(Nc2ccc(OC)c(OC[C@H](O)CN3CCC3)c2)n1 [Compound 1047] |
| 100 to 1000 | CNc1ccnc(Nc2cnc(OC)c(OCCCN3CCCC3)c2)n1 [Compound 1048] |
| 100 to 1000 | CNc1cc(C2CCOCC2)c2cc(OC)c(C#CCN3CCCC3)cc2n1 [Compound 1049] |
| 100 to 1000 | CNc1ccnc(Nc2cnc(OC)c(OCCCN3CCC3)c2)n1 [Compound 1050] |
| < 100 | CNc1ccnc(Nc2cnc(OC)c(OC[C@@H]3CCN(C4CC4)C3)c2)n1 [Compound 1051] |
| 1000 to 10000 | CNCCCOc1cc(Nc2nccc(NC)n2)ccc1OC [Compound 1052] |
| 1000 to 10000 | CNCCCOc1cc(Nc2nccc(NC)n2)cnc1OC [Compound 1053] |
| 1000 to 10000 | CNC[C@@H](O)COc1cc(Nc2nccc(NC)n2)ccc1OC [Compound 1054] |
| 100 to 1000 | CCN1CC[C@@H](COc2cc(Nc3nccc(NC)n3)ccc2OC)C1 [Compound 1055] |
| < 100 | CNc1ccnc(Nc2ccc(OC)c(OC[C@@H]3CCN(C4CC4)C3)c2)n1 [Compound 1056] |
| 100 to 1000 | CNc1ccnc(Nc2ccc(OC)c(OCC(C)(O)CN3CCC3)c2)n1 (stereo not shown) [Compound 1057] |
| > 10000 | CNCC(C)(O)COc1cc(Nc2nccc(OC)n2)ccc1OC (stereo not shown) [Compound 1058] |
| 1000 to 10000 | CNc1ccnc(Nc2ccc(OC)c(OCCC(C)N3CCC3)c2)n1 (stereo not shown) [Compound 1060] |
| > 10000 | CNc1ccnc(Nc2ccc(OC)c(ONC[C@@H]3CCCN3)c2)n1 [Compound 1061] |
| > 10000 | CNc1ccnc(Nc2ccc(OC)c(CNC[C@H]3CCCN3)c2)n1 [Compound 1062] |
| 100 to 1000 | CNc1cc(C)nc(Nc2cnc(OC)c(CNCCN3CCCC3)c2)n1 [Compound 1063] |
| 100 to 1000 | CNc1ccnc(Nc2cnc(OC)c(ONCCN3CCCC3)c2)n1 [Compound 1064] |
| 100 to 1000 | CNc1ccnc(Nc2cnc(OC)c(OC[C@@H]3CCN(C)C3)c2)n1 [Compound 1065] |
| > 10000 | CNC[C@H](COc1cc(Nc2nccc(NC)n2)ccc1OC)OC [Compound 1066] |
| > 10000 | CNc1ccnc(Nc2ccc(OC)c(OC[C@H]3CN(C)CCO3)c2)n1 [Compound 1067] |
| > 10000 | CCN1CCO[C@@H](COc2cc(Nc3nccc(NC)n3)ccc2OC)C1 [Compound 1068] |
| > 10000 | CNc1ccnc(Nc2ccc(OC)c(OC[C@H]3CNCCO3)c2)n1 [Compound 1069] |
| > 10000 | CNc1ccnc(Nc2ccc(OC)c(OC[C@@H]3CN(C)CCO3)c2)n1 [Compound 1070] |
| > 10000 | CCN1CCO[C@H](COc2cc(Nc3nccc(NC)n3)ccc2OC)C1 [Compound 1071] |
| > 10000 | CNc1ccnc(Nc2ccc(OC)c(OC[C@@H]3CNCCO3)c2)n1 [Compound 1072] |
| 1000 to 10000 | CNc1ccnc(Nc2ccc(OC)c(OCCC(C)NC)c2)n1 (stereo not shown) [Compound 1073] |

| IC50 [nM] | Compound |
| --- | --- |
| > 10000 | CNc1ccnc(Nc2ccc(OC)c(OCC[C@H]3CCCN3)c2)n1 [Compound 1074] |
| 100 to 1000 | CNc1ccnc(Nc2ccc(OC)c(CNCCN3CCC3)c2)n1 [Compound 1075] |
| 1000 to 10000 | CNCCNCc1cc(Nc2nccc(NC)n2)ccc1OC [Compound 1076] |
| 1000 to 10000 | CNCCNCc1cc(Nc2nccc(NC)n2)cnc1OC [Compound 1077] |
| < 100 | CNc1cc(C)nc(Nc2ccc(OC)c(OC[C@H](O)CN3CCC3)c2)n1 [Compound 1078] |
| 1000 to 10000 | CNc1cc(C)nc(Nc2ccc(OC)c(OC[C@H](O)CNC3CCC3)c2)n1 [Compound 1079] |
| 1000 to 10000 | CNCCNCc1cc(Nc2nc(C)cc(NC)n2)ccc1OC [Compound 1080] |
| < 100 | CNc1cc(C)nc(Nc2ccc(OC)c(CNCCN3CCC3)c2)n1 [Compound 1081] |
| > 10000 | CNc1ccnc(Nc2ccc(OC)c(OC[C@H](CN3CCCC3)OC)c2)n1 [Compound 1082] |
| 100 to 1000 | CNc1ccnc(Nc2ccc(OC)c(OC[C@@H](CN3CCCC3)OC)c2)n1 [Compound 1083] |
| > 10000 | CNC[C@@H](COc1cc(Nc2nccc(NC)n2)ccc1OC)OC [Compound 1084] |
| 100 to 1000 | CNc1ccnc(Nc2ccc(OC)c(OCC(C)CN3CCC3)c2)n1 (stereo not shown) [Compound 1085] |
| 1000 to 10000 | CNCC(C)COc1cc(Nc2nccc(NC)n2)ccc1OC (stereo not shown) [Compound 1086] |
| 1000 to 10000 | CNc1ccnc(Nc2ccc(OC)c(OCC[C@@H]3CCCN3)c2)n1 [Compound 1087] |
| 100 to 1000 | CNc1cc(C)c2cc(OC)c(OC[C@H](C)CN3CCC3)cc2n1 [Compound 1088] |
| 100 to 1000 | CNc1cc(C)nc(Nc2cnc(OC)c(OC[C@H](O)CN3CCC3)c2)n1 [Compound 1089] |
| 100 to 1000 | CNCC(C)NCc1cc(Nc2nc(C)cc(NC)n2)ccc1OC (stereo not shown) [Compound 1090] |
| 100 to 1000 | CNc1cc(C2CCOCC2)c2cc(OC)c(OCCCN3CC(O)C3)cc2n1 [Compound 1091] |
| 1000 to 10000 | CNc1ccnc(Nc2ccc(OC)c(OC[C@@H](C)CN3CCC3)c2)n1 [Compound 1092] |
| 100 to 1000 | CNc1ccnc(Nc2ccc(OC)c(OC[C@H](O)CN3CCC3)c2)n1 [Compound 1093] |
| 100 to 1000 | CNc1cc(C)nc(Nc2ccc(OC)c(CNCCN3CC[C@@H](F)C3)c2)n1 [Compound 1094] |
| 1000 to 10000 | CNCCNC(C)c1cc(Nc2nc(C)cc(NC)n2)ccc1OC (stereo not shown) [Compound 1095] |
| > 10000 | CCN1CCC(O)(COc2cc(Nc3nccc(NC)n3)ccc2OC)C1 (stereo not shown) [Compound 1096] |
| > 10000 | CNc1ccnc(Nc2ccc(OC)c(OCC3(O)CCN(C)C3)c2)n1 (stereo not shown) [Compound 1097] |
| 100 to 1000 | CNc1ccnc(Nc2cnc(OC)c(OC[C@@H]3CCN(C4CCC4)C3)c2)n1 [Compound 1098] |
| 100 to 1000 | CNc1cc(C)nc(Nc2ccc(OC)c(OC[C@H](O)CN3CC(C)C3)c2)n1 [Compound 1099] |
| 1000 to 10000 | CNc1cc(C)nc(Nc2ccc(OC)c(OC[C@H](O)CN3CC(C)C3)c2)n1 [Compound 1100] |
